# Data from patent US8840931B2, “Pharmaceutical compositions for dehydrating, atrophying and eliminating pathological tissues” (priority 2008, dated 2014).
# Experiments:
# related diseases = experiment: Clinical experiment observations (overall statement); conditions: human, in vivo
# bleeding wounds = experiment: Treatment of bleeding wounds for hemostasis; type: in vivo; conditions: used for hemostasis
# Source text: The inventors determined that the mechanism of this phenomenon was the dehydration, atrophy, and elimination of blood and blood tissues, rather than the well-known mechanism of an astringent of Monsell in the literature in which hemostasis was caused by forming a thrombus of blood platelet and fibrin, aggregation of erythrocyte, and accelerated coagulation of blood.
substance,measurement,setting,value
ferric subsulfate,clinical use to treat related diseases,related diseases,successfully used
same,observation on bleeding wounds,bleeding wounds,formation of black solid particulate matter was observed
